{
  "source": "patent US20070167412A1",
  "about": "“HALOCOMBSTATINS AND METHODS OF SYNTHESIS THEREOF” (ARIZONA BOARD OF REGENTS, priority 2003, published 2007)",
  "key": {"purified tubulin": {"tested_on": "T1, purified tubulin", "T1 construct": "other: 10 μM tubulin, GTP 0.4 mM, 30° C., extent after 20 minutes", "test": "inhibition of tubulin polymerization (turbidimetry)", "type": "biochemical", "settings": "10 μM tubulin, GTP 0.4 mM, 30° C., extent after 20 minutes; read-out: Inhibition of polymerization IC50 ± S.D.", "experimental": "Tubulin polymerization was evaluated by turbidimetry at 350 nm using Beckman DU7400/7500 spectrophotometers as described in detail elsewhere. […] Varying concentrations of drug were preincubated with 10 μM:M ([…]) purified tubulin (See Hamel, E., et al., Separation of Active Tubulin and Microtubule-associated Proteins by Ultracentrifiigation and Isolation of a Component Causing the Formation of Microtubule Bundles, Biochemistry 1984, 23, 4173-4184). Samples were chilled on ice, GTP (0.4 mM) was added, and polymerization was followed at 30° C. The parameter measured was extent of the reaction after 20 minutes. Coichicine binding was measured as described in detail previously. Reaction mixtures contained 1.0 μM :M tubulin, 5.0:M, [^3H]colchicine (from Dupont), and inhibitor at 1.0 μM:M. Incubation was for 10 minutes at 37° C.\nTubulin Evaluations: Tubulin polymerization was evaluated by turbidimetry at […] using Beckman DU7400/7500 spectrophotometers as known to one of skill in the art. Varying concentrations of the compound were preincubated with 10 μM. […]"}, "[1]": {"tested_on": "human umbilical vein endothelial cells (HUVEC)", "test": "Matrigel cord formation assay", "type": "cell-based", "design": "key to Lengths of Cords: −: No Cords; +: Small; ++: ˜50% of Control; +++: Same as Control", "settings": "24 hours, compared to untreated controls", "procedure,_shortened": "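HUVEC grown in EGM-2, seeded at 2×10^5 cells/ml onto polymerized Matrigel with test compounds. After 24 hours, cord length and junction number imaged and measured relative to untreated controls.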"}, "Lung-NSC NCI-H460": {"tested_on": "Lung-NSC NCI-H460", "test": "human cancer cell growth inhibition, sulforhodamine B assay", "type": "cell-based", "settings": "Homo sapiens, NCI-H460; Table I; 48 hours; read-out: Human cancer cell line inhibition (GI50) Lung-NSC NCI-H460", "procedure,_shortened": "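NCI sulforhodamine B protocol: cells exposed to compounds for 48 h, then fixed with trichloroacetic acid, stained with sulforhodamine B and read on a microplate reader.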"}, "SW1736": {"tested_on": "SW1736", "test": "human anaplastic thyroid carcinoma cell line inhibition", "type": "cell-based", "settings": "Homo sapiens, SW-1736", "experimental": "(§1) Inhibition of human cancer cell growth was assessed using the National Cancer Institute's standard sulforhodamine B assay. After 48 hours, the plates were fixed with trichloracetic acid, stained with sulforhodamine B and read with an automated microplate reader. A growth inhibition of 50% (GI50 or the drug concentration causing a 50% reduction in the net protein increase) was calculated from optical density data with Inmunosoft software. Inhibition of the mouse leukemia P388 cells was assessed in a 10% horse serum/Fisher medium soution for 24 hours, followed by a 48 hour incubation with serial dilutions of the compounds. Cell growth inhibition (ED50) was then calculated using a Z1 Becleman/Coulter particle counter."}, "KAT-4": {"tested_on": "KAT-4", "test": "human anaplastic thyroid carcinoma cell line inhibition", "type": "cell-based", "settings": "Homo sapiens, KAT-4", "experimental": "as §1"}, "[2]": {"tested_on": "Stenotrophomonas maltophilia", "test": "reference broth microdilution susceptibility assay", "type": "cell-based", "settings": "Table III", "procedure,_shortened": "(§2)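 Read-out is growth susceptibility in the NCCLS reference broth microdilution format, under M27-A for the two yeasts and under M7-A5 for the two bacteria.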"}, "Candida albicans": {"tested_on": "Candida albicans", "test": "reference broth microdilution susceptibility assay", "type": "cell-based", "settings": "Table III", "procedure,_shortened": "(§3)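 Compounds are serially diluted in broth and tested for microbial susceptibility by the standard microdilution procedure. Bacteria are handled per approved standard M7-A5 and yeasts per approved standard M27-A.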"}, "Enterobacter cloacae": {"tested_on": "Enterobacter cloacae", "test": "reference broth microdilution susceptibility assay", "type": "cell-based", "settings": "Table III", "procedure,_shortened": "as §2"}, "Neisseria gonorrhoeae": {"tested_on": "Neisseria gonorrhoeae", "test": "reference broth microdilution susceptibility assay", "type": "cell-based", "settings": "Table III", "procedure,_shortened": "as §2"}, "Cryptococcus neoformans": {"tested_on": "Cryptococcus neoformans", "test": "reference broth microdilution susceptibility assay", "type": "cell-based", "settings": "Table III", "procedure,_shortened": "as §3"}, "Escherichia coli": {"tested_on": "Escherichia coli", "test": "reference broth microdilution susceptibility assay", "type": "cell-based", "settings": "Table III", "procedure,_shortened": "as §3"}, "Micrococcus luteus": {"tested_on": "Micrococcus luteus", "test": "reference broth microdilution susceptibility assay", "type": "cell-based", "settings": "Table III", "procedure,_shortened": "as §3"}, "Streptococcus pneumoniae": {"tested_on": "Streptococcus pneumoniae", "test": "reference broth microdilution susceptibility assay", "type": "cell-based", "settings": "Table III", "procedure,_shortened": "as §2"}, "Enterococcus faecalis": {"tested_on": "Enterococcus faecalis", "test": "reference broth microdilution susceptibility assay", "type": "cell-based", "settings": "Table III", "procedure,_shortened": "as §2"}, "Staphylococcus aureus": {"tested_on": "Staphylococcus aureus", "test": "reference broth microdilution susceptibility assay", "type": "cell-based", "settings": "Table III", "procedure,_shortened": "as §2"}},
  "data": [
    {"smiles": "COc1ccc(/C=C\\c2cc(I)c(OC)c(OC)c2)cc1O", "note": "[Compound 14a, 3-Iodo-4,4′,5-trimethoxy-3′-hydroxy-z-stilbene]", "values": [
      {"measurement": "IC50", "setting": "purified tubulin", "value": "1600 ± 200", "unit": "nM"},
      {"measurement": "Lengths of Cords", "setting": "[1]; 0.001 μg/ml", "value": "+"},
      {"measurement": "Lengths of Cords", "setting": "[1]; 0.01 μg/ml", "value": "−"},
      {"measurement": "GI50", "setting": "Lung-NSC NCI-H460", "value": 0.00019, "unit": "µg/mL"},
      {"measurement": "GI50", "setting": "SW1736", "value": 2.2, "unit": "µg/mL"},
      {"measurement": "GI50", "setting": "KAT-4", "value": "0.089 to 0.14", "unit": "µg/mL"},
      {"measurement": "Range of minimum inhibitory concentration, Stenotrophomonas maltophilia", "setting": "[2]", "value": "* (no inhibition at 64 μg/ml)"},
      {"measurement": "Range of minimum inhibitory concentration, Candida albicans", "setting": "Candida albicans", "value": "* (no inhibition at 64 μg/ml)"},
      {"measurement": "Range of minimum inhibitory concentration, Enterobacter cloacae", "setting": "Enterobacter cloacae", "value": "* (no inhibition at 64 μg/ml)"},
      {"measurement": "Range of minimum inhibitory concentration, Neisseria gonorrhoeae", "setting": "Neisseria gonorrhoeae", "value": "16 to 32", "unit": "µg/mL"},
      {"measurement": "Range of minimum inhibitory concentration, Cryptococcus neoformans", "setting": "Cryptococcus neoformans", "value": "32 to 64", "unit": "µg/mL"},
      {"measurement": "Range of minimum inhibitory concentration, Escherichia coli", "setting": "Escherichia coli", "value": "* (no inhibition at 64 μg/ml)"},
      {"measurement": "Range of minimum inhibitory concentration, Micrococcus luteus", "setting": "Micrococcus luteus", "value": "16 to 32", "unit": "µg/mL"},
      {"measurement": "Range of minimum inhibitory concentration, Streptococcus pneumoniae", "setting": "Streptococcus pneumoniae", "value": 64, "unit": "µg/mL"},
      {"measurement": "Range of minimum inhibitory concentration, Enterococcus faecalis", "setting": "Enterococcus faecalis", "value": "* (no inhibition at 64 μg/ml)"},
      {"measurement": "Range of minimum inhibitory concentration, Staphylococcus aureus", "setting": "Staphylococcus aureus", "value": "* (no inhibition at 64 μg/ml)"}
    ]}
  ]
}
